Each structure is given as a SMILES string.

In general, melting point refers to the temperature, or range, at which the solid turns liquid. `Cn1cnc(S(=O)(=O)n2c(CCCC(=O)O)cc3cc(Cl)ccc32)c1`: the melting point lay in the range of 222 to 225 °C. For `Cc1cccc(C)c1C(=O)c1sc(Nc2ccc(N3CCOCC3)cc2)nc1N`, the melting point lay in the range of 221 to 223 °C.

Turning to `CNC(=NC#N)NCCSCc1nccc(N)n1`, the melting point is 189 to 190 °C. Regarding `C=CCc1c(C)cc(C)c(C(C)O)c1-c1ccc(F)cc1` (configuration not stated), the melting point came out at 92 °C. In the case of `C=CCOC(=O)c1cc(C23CC4CC(CC(C4)C2)C3)c(OC)cc1F` it was 101 to 102 °C; in that of `CCOC(=O)COc1ccccc1Cc1ccc2ccccc2c1O`, 124 to 125 °C. In the case of `COc1cc(-c2csc(N)n2)cc([N+](=O)[O-])c1O` it was 248 to 250 °C; in that of `Cc1cc(-c2nc3cccnn3c2-c2ccnc(NC(=O)NC(C)C)c2)ccc1F`, 232 to 233 °C. For `COC(=O)[C@H]1CO[C@@H](C(C)(C)C)N1C(=O)Cl`, the melting point was 78 °C. In the case of `N#Cc1cc(Cn2cncn2)cc(-c2ccccc2)c1` it was 109 to 110 °C. `O=c1ccc2c(CO)nccc2[nH]1`: the melting point lay in the range of 294 to 300 °C. The molecule `COC(=O)Cc1ccc(S(=O)(=O)c2ccc(Cl)cc2)cc1` displayed a melting point of 78 to 80 °C. `C[C@H](C(=O)O)C(C)(C)c1ccccc1` registered a melting point of 69 to 72 °C. Molecule `CC(=O)Nc1c(Cl)cnn(C)c1=O` showed a melting point of 147 to 148 °C.

`CCC(O)(c1ccc(-c2ccccc2)cc1)C1CC=CC1` (configuration not stated) showed a melting point of 82 to 84 °C. For `CNC(=O)[C@@H](NC(=O)[C@@H](CC(=O)OCc1ccccc1)n1ccc(-c2ccncc2)c1)C(C)(C)C`, the melting point fell in the range of 130 to 133 °C. The molecule `Cc1cc2c(-c3ccccc3C)c(NC(=O)Nc3ccc(F)cc3F)c(=O)n(C)c2cc1C` gave a melting point of 225 to 226 °C. `C[C@]12CCC(=O)C=C1CC[C@@H]1[C@@H]2CC[C@]2(C(F)F)C(=O)CC[C@@H]12`: the melting point lay in the range of 183 to 184 °C. For the molecule `C#CC(=CC(=O)O)c1ccccc1`, the melting point was 130 °C. The molecule `CCCc1c(C(=O)OCC)sc(NC(=O)C(=O)OCC)c1[N+](=O)[O-]` gave a melting point of 73 to 75 °C. `CC(=O)OC(COc1ccc(/C=C/C(=O)O)c(Oc2ncc(C(F)(F)F)cc2Cl)c1)COC(C)C` (configuration not stated): the melting point lay within 134 to 135 °C. `COc1ccc(-c2cc(-c3ccccc3C(=O)O)no2)cc1` came in with a melting point of 182 to 185 °C. On to `O=C(CN1CCC(Cc2ccc(F)cc2)CC1)Nc1ccc2c(c1)OCC(=O)N2`, for which the melting point is 209 to 211 °C. Turning to `Cc1ccc(NC2=C(Cl)C(=O)c3ccccc3C2=O)nc1`, the melting point was in the range of 260 to 261 °C. On to `CCCCCCN(CCC12CC3CC(CC(C3)C1)C2)C(=O)NCCCc1ccncc1`, for which the melting point lay in the range of 120 to 122 °C. In the case of `Cc1ccc(C=NC2=NN(c3ccc4ccccc4c3)CC2)cc1`, the melting point fell in the range of 184 to 186 °C. `Brc1ccc(OC2CN(C(c3ccccc3)c3ccccc3)C2)cc1` yielded a melting point of 116 to 117 °C. The molecule `C=CC(=O)Nc1ccc2ncnc(Nc3cccc(C)c3)c2c1` registered a melting point of 247 to 248 °C.

In turn, `COc1ccnc(CSc2nc3cc(OC(F)F)ccc3[nH]2)c1OC` came in with a melting point of 104 to 108 °C. The figure for `CCCC(=O)NC1=CC(=O)c2ccc(C=O)nc2C1=O` is 208 to 210 °C.

Turning to `CCCN(C1CCC(c2c[nH]c3ccc(F)cc23)CC1)C1COc2cccc(OC)c2C1` (configuration not stated), the melting point was 148 °C. `CC(=O)SCC(CC(=O)c1ccc(Br)cc1)C(=O)OCc1ccccc1` (configuration not stated) registered a melting point of 79 to 80 °C. Molecule `COc1ccccc1OCC1NC(C(=O)O)CS1` (configuration not stated) registered a melting point of 149 to 150 °C.

In the case of `c1cc(N2CCCC2)ccc1CC12CC3CC(CC(C3)C1)C2`, the melting point lay in the range of 147 to 148 °C.

In turn, `CCc1cc(Oc2ccc(S(C)(=O)=O)nc2)cc2cc(C3=NCC(CC(=O)N4CCS(=O)CC4)S3)[nH]c12` (configuration not stated) gave a melting point of 194 to 196 °C.

For `O=C(Nc1ccc2ccc(Cl)nc2n1)c1cnccn1`, the melting point is 308 °C.

Molecule `Cn1cc(-c2ccccc2)c(=O)c(-c2ccc(Cl)c(Cl)c2)c1` showed a melting point of 166 °C.

In the case of `CCCCCCC1OC1(C(=O)OCC)C(=O)OCC` (configuration not stated), the melting point lay within 58 to 60 °C. Molecule `CCCCc1ccc(C(=O)Cc2ccc(Br)cc2)cc1` registered a melting point of 129 to 131 °C.

For the molecule `Nc1cccc(Oc2ccc(C(=O)c3ccc(C(=O)c4ccc(Oc5cccc(N)c5)cc4)cc3)cc2)c1`, the melting point was in the range of 161 to 163 °C.

Molecule `O=Cc1nc(-c2ccccc2)c(-c2ccccc2)n1Cc1ccccc1` had a melting point of 146 to 147 °C.

In the case of `c1ccc2c(c1)c1c(N3CCCC3)nc(N3CCCC3)nc1n2CCN1CCOCC1`, the melting point lay within 138 to 139 °C.

With `CSc1ccc2c(c1)CC(C)(C)C(=O)N2`, the melting point was determined as 154 °C. `O=C1CCC(c2cc(F)c(OC3CCN(C4CCC4)CC3)c(F)c2)=NN1` yielded a melting point of 162 to 164 °C.

Molecule `CCC(=O)Nc1ccc(C=CC(=O)O)cc1` showed a melting point of 243 °C. In turn, `O=Cc1c[nH]c2c(F)cccc12` registered a melting point of 203 to 205 °C.

Regarding `CCCCC1CCCc2oc(C(=N)N)cc21` (configuration not stated), the melting point lay within 243 to 245 °C. In turn, `N#Cc1cccc(C2=NN(C(=O)Nc3ccc(OC(F)(F)F)cc3)CCC2n2cc(Cl)cn2)c1` (configuration not stated) came in with a melting point of 216 °C. In turn, `CCCCOC(=O)C(NC(=O)c1cc([N+](=O)[O-])cc([N+](=O)[O-])c1)C(C)C` (configuration not stated) registered a melting point of 88 to 91 °C. Regarding `CC(=O)NCc1ccc(CN2CCN(c3cc(Cl)nc(Cl)n3)CC2)cc1`, the melting point fell in the range of 165 to 166 °C. Take `CNS(=O)(=O)c1cc(C(C)(C)C)cc(CNC(C)=O)c1O`: the melting point lay within 173 to 174 °C.

Take `O=C(C[C@H](NC(=O)c1ccccc1)C(=O)O)c1ccc2oc3ccccc3c2c1`: the melting point lay in the range of 124 to 130 °C. In the case of `O=c1[nH]c(=Cc2ccc(OCc3ccccc3)cn2)c(=O)[nH]c1=Cc1ccccn1` it was 248 to 250 °C. For `CCCC(=O)Nc1ccc(-c2ccncc2)cc1`, the melting point lay within 174 to 175 °C. Regarding `NNc1ccc(-c2cccc(Cl)c2)nn1`, the melting point is 173 to 174 °C.

Molecule `COc1ccc(CSC(C)(C)C(O)(CO)c2ccc(F)cc2F)cc1` (configuration not stated) registered a melting point of 113 °C. `COC(=O)COc1cc2c(c3c1c(C(=O)C(N)=O)c(C)n3Cc1ccccc1)CCCC2` gave a melting point of 115 to 125 °C.

`CCOC(=O)CCCCn1c(=O)[nH]c2ccc([N+](=O)[O-])cc2c1=O` came in with a melting point of 173 to 174 °C.

`CCCOc1ccc(S(=O)(=O)NCc2ccncc2)cc1-c1nc2cc(N)c([N+](=O)[O-])cc2c(=O)[nH]1` returned a melting point of 157 to 160 °C. `CCOc1ccc(NC=C(C#N)C(=O)Nc2cc(OC)c(Cl)cc2Cl)cc1Br` came in with a melting point above 250 °C. The molecule `O=S(=O)(c1ccccc1)N1CCCC1c1ccc(Cl)cc1` (racemic) displayed a melting point of 122 °C. For `COC(=O)c1ccnc(Cl)c1N`, the melting point was 91 to 92 °C. For `CCCc1c(OCCCCCOc2c(C)c(C)c3c(c2C)CC[C@](C)(C(=O)O)O3)ccc(C(C)=O)c1O`, the melting point fell in the range of 92.5 to 95 °C. For the molecule `Fc1ccc(OCCCCN2CCC(NC3=Nc4ccccc4CS3)CC2)cc1`, the melting point is 133 °C. The figure for `FC(F)C(F)(F)Sc1nc(-c2ccccc2)c(-c2ccccc2)[nH]1` is 212 to 213 °C; for `OC(Cc1ccc(Cl)cc1)Cn1cncn1` (configuration not stated) it is 104 to 106 °C.

In turn, `COn1c(C)nc(N2CCc3ccccc3CC2)c(C#N)c1=O` registered a melting point of 144 to 145 °C. In the case of `NC(=O)c1ncoc1-c1cccc(O)c1` it was 202 to 204 °C.

As for `CN1C(=O)C(=NC(Cl)=C(Cl)Cl)N(c2ccc(Cl)cc2)C1=O`, the melting point lay within 108 to 110 °C. `Cc1c[nH]c(-c2ccc(F)cc2)c1-c1ccc(F)cc1` returned a melting point of 126 to 127 °C. Molecule `O=c1cc[nH]c2nc(-c3ccncc3)ncc12` had a melting point above 350 °C. In the case of `Cc1c(Cl)nnc2c1CN(C(=O)c1ccccc1F)CC2`, the melting point lay within 151 to 153 °C. `O=C1c2ccccc2-c2csc(N3C(=O)c4ccccc4C3=O)c21` registered a melting point of 197 to 199 °C. The figure for `CC1OC(=O)N2c3ccc(OCCCC(F)(F)F)cc3CCC12` (configuration not stated) is 79.1 to 79.2 °C; for `CC(C)C(O)c1ccc(-c2ccc(Cl)cc2)cc1` (configuration not stated) it is 71 to 72 °C. As for `COc1cccc(CNc2nccc(-c3cc(N4CCN(CCCN(C)C5CCCCC5)CC4)c4cc(OC)ccc4c3)n2)c1`, the melting point was in the range of 155 to 161 °C.

`Cc1cc2c(cc1S(=O)(=O)c1ccc(Cl)cc1)OC(C(=O)O)O2` (configuration not stated) had a melting point of 169 to 171 °C. Consider `C=C1COc2c(N3CCC(NC(=O)OC(C)(C)C)C3)c(F)cc3c(=O)c(C(=O)O)cn1c23` (configuration not stated), for which the melting point fell in the range of 219 to 220 °C.

The molecule `Cc1nnc(-c2cccc(I)c2)s1` gave a melting point of 86 to 89 °C. Take `CCN(CC)CC1CCCN(CC(=O)N2c3ccccc3C(=O)Nc3cccnc32)C1` (configuration not stated): the melting point lay in the range of 199 to 200 °C. For `CCOC(=O)N1CCc2nc3cccc(Cl)c3c(C)c2CC1`, the melting point was 138 °C. In the case of `C[C@H](NC(=O)OC(C)(C)C)C(=O)OCCCNc1cccc2c1C(=O)c1ccccc1C2=O` it was 58 °C; in that of `O=S(=O)(/C=C/c1ccc(Cl)cc1)Nc1ccccc1Cl`, 107 to 109 °C; in that of `CC(=O)CS(=O)(=O)C(c1ccc(Cl)cc1)c1ccc(Cl)cc1`, 114 to 115 °C.

Regarding `CCCCS(=O)Cc1cc(C)c(CCl)cc1C` (configuration not stated), the melting point is 112 °C.

The molecule `CCCCc1ncc(CSc2ncccc2C(=O)O)n1Cc1ccc(C(=O)O)cc1` showed a melting point of 155 to 157 °C. Take `CCCNc1ncnc2c1ncn2Cc1ccc(OC)c(OC)c1`: the melting point fell in the range of 117 to 120 °C. Take `NC(C(=O)O)c1cc(O)cc(O)c1[N+](=O)[O-]` (configuration not stated): the melting point was above 280 °C.

Take `CCC1(C)NC(=O)C(CCSC)O1` (configuration not stated): the melting point is 62 °C.

In turn, `O=S(=O)(Cc1c(C(F)(F)F)nn(-c2ccccc2)c1O)c1ccccc1` showed a melting point of 122 to 123 °C. `CC(C)CCNCCOc1ccc2ccccc2c1` yielded a melting point of 91 °C. The figure for `O=[N+]([O-])c1ccc(Sc2ccc(Cl)cc2)nc1` is 134 to 136 °C.

The values are drawn from a melting point compilation (Tetko et al.; mined from patent text by program, amines drawn as free bases though some values may be those of a salt).
